Data on 29 compounds can be found in ChEMBL document CHEMBL6083244, “Identification of 3-methyl-1-(3-methylpyridin-2-yl)-1H-pyrazol-5-ol as promising neuroprotective agent” (Bioorg Med Chem Lett, 2024).

Experiment [1] can be described thus: Antioxidant activity assessed as DPPH radical scavenging activity measured after 30 mins. Type of experiment: functional.
Experiment [2] in a line: Antioxidant activity assessed as DPPH radical scavenging activity at 8 uM relative to control. Type of experiment: functional.
Experiment [3] is described as follows: Antioxidant activity assessed as DPPH radical scavenging activity. Type of experiment: functional.
Experiment [4] is described as follows: Antioxidant activity assessed as ABTS radical scavenging activity at 8 uM relative to control. Type of experiment: functional.
The nature of experiment [5]: Antioxidant activity assessed as ABTS radical scavenging activity. Type of experiment: functional.
Experiment [6] can be described thus: Antioxidant activity assessed as oxygen radical scavenging by measuring trolox equivalents. Type of experiment: functional.
In experiment [7] the test system is SH-SY5Y. The experiment can be described thus: Neuroprotective activity against OGD/R induced cell injury in human SH-SY5Y cells assessed as increase in cell survival rate at 1 uM (reference value: 63.22 +/- 2.12%). Type of experiment: functional. The conditions noted are these: read-out: Survival.
Experiment [8] in a line: Antioxidant activity assessed as DPPH radical scavenging activity measured after 30 mins by spectrophotometry assay. Type of experiment: functional.
Experiment [9] has as its system Mus musculus. The experiment can be described thus: Neuroprotective activity against tMCAO- induced brain injury in ICR mouse model assessed as reduction in infarct volume at 10 mg/kg, ip (reference value: 43.1%). Type of experiment: functional.
Experiment [10] has as its system SH-SY5Y. The experiment can be described thus: Neuroprotective activity against OGD/R induced cell injury in human SH-SY5Y cells assessed as reduction in cell crumpling at 1 uM pretreated with OGD/R for 4 hrs followed by compound addition and measured after 24 hrs by light microscopic analysis. Type of experiment: functional, cell-based.
In experiment [11] the test system is SH-SY5Y. The experiment in a line: Neuroprotective activity against OGD/R induced cell injury in human SH-SY5Y cells assessed as reduction in cell shrinkage at 1 uM pretreated with OGD/R for 4 hrs followed by compound addition and measured after 24 hrs by light microscopic analysis. Type of experiment: functional, cell-based.
Experiment [12] in a line: Metal chelating activity assessed as Cu2+ chelation by UV-Vis spectroscopy.
For experiment [13], the species on record is Mus musculus. The experiment can be described thus: Neuroprotective activity against tMCAO- induced brain injury in ICR mouse model assessed as appearance of tightly arranged neuronal cells in CA1 region by H and E staining based assay. Type of experiment: functional, organism-based.
The test system of experiment [14] is Mus musculus. The experiment in a line: Neuroprotective activity against tMCAO- induced brain injury in ICR mouse model assessed as restoration of pyramidal cells size at 10 mg/kg, ip by H and E staining based assay. Type of experiment: functional, organism-based.
For experiment [15], the system named is Mus musculus. The experiment can be described thus: Neuroprotective activity against tMCAO- induced brain injury in ICR mouse model assessed as restoration of pyramidal cells morphology at 10 mg/kg, ip by H and E staining based assay. Type of experiment: functional, organism-based.
Experiment [16] has as its system Mus musculus. The experiment in a line: Neuroprotective activity against tMCAO- induced brain injury in ICR mouse model assessed as appearance of regularly arranged neuronal nissl bodies at 10 mg/kg, ip by nissl staining based assay. Type of experiment: functional, organism-based.
Experiment [17] deals with Mus musculus. The experiment in a line: Neuroprotective activity against tMCAO- induced brain injury in ICR mouse model assessed as appearance of abundant nissl granules at 10 mg/kg, ip by nissl staining based assay. Type of experiment: functional, organism-based.

≈ marks a conversion by molar mass, not a printed value. Calls of active or inactive are those of the source. The calls are words filed in the database; no cut-off is given here. Some results are limits rather than exact numbers.

For the compound `O=C1S/C(=C\c2cn(-c3ccccc3)nc2-c2ccc(O)cc2)C(=O)N1Cc1ccccc1`, the IC50 in experiment [1] came out at 110.8 µg/mL (≈ 244 µM).

In the case of `Oc1cc(C(F)(F)F)nn1-c1ncccc1Cl`, the Activity in experiment [2] was found to be 28.1%; in experiment [4], 40.4%; in experiment [6], 1.13. The IC50 in experiment [3] (read-out: IC50) was > 120 µM; in experiment [5], 19.5 µM. The viability at 1 µM in the experiment with SH-SY5Y [7] turned out to be 78.8%.

As to `Cc1nc(C)c(-n2nc(C(F)(F)F)cc2O)nc1C`, the Activity in [2] amounted to 30.6%; in experiment [4], 55.6%; in experiment [6], 1.34. Moreover, the IC50 in [3] (read-out: IC50) is > 120 µM; in experiment [5] it was 19.7 µM. For the same compound, in the experiment on SH-SY5Y [7], the viability at 1 µM stood at 75.4%.

As for `Cc1cc(O)n(-c2ccc(Cl)cn2)n1`, the Activity was found to be 53% in experiment [2], 52% in experiment [4] and 1.27 in [6]. For the same compound, the values for the IC50 in experiment [3] (read-out: IC50) and in [5] were 18.8 µM and 14.8 µM, respectively. Also, the viability at 1 µM in the experiment with SH-SY5Y [7] amounted to 73.4%.

Regarding `Cc1cc(O)n(-c2ccc(CO)cn2)n1`, the Activity in experiment [2] came out at 34.7%; in experiment [4] it was 46.4%; in experiment [6], 0.8. Moreover, the IC50 in experiment [3] (read-out: IC50) worked out at 32 µM; in experiment [5] it was 20.5 µM. Besides, the viability at 1 µM in the experiment with SH-SY5Y [7] stood at 81.7%.

In the case of `Cc1cc(O)n(-c2ncccc2C(F)(F)F)n1`, the Activity in experiment [2] came to 2.85%; in experiment [4], 5.92%; in experiment [6], 0.98. In addition, in the experiment on SH-SY5Y [7], the viability at 1 µM was found to be 77.4%.

For the compound `CC1=NN(c2ncc(Cl)cc2Cl)C(=O)C1`, the Activity worked out at 6.73% in [2], 31.9% in experiment [4] and 1.42 in experiment [6]. The IC50 is > 120 µM in experiment [3] (read-out: IC50) and 19.4 µM in [5]. In the experiment with SH-SY5Y [7], the viability at 1 µM turned out to be 82.5%.

Take `Cc1cc(O)n(-c2ccc(F)cn2)n1`: the Activity in experiment [2] turned out to be 21.4%; in experiment [4] it was 51.6%; in experiment [6], 1.06. For the same compound, the IC50 in experiment [3] (read-out: IC50) was 19.8 µM; in experiment [5], 13.8 µM. For the same compound, the viability at 1 µM in the experiment with SH-SY5Y [7] worked out at 89.5%.

Consider `O=C(O)/C=C/c1ccc(O)c(O)c1` [CAFFEIC ACID], for which, in experiment [3], the IC50 was 0.8 µg/mL.

`Cc1cc(O)n(-c2cccc(CO)n2)n1`: the Activity was determined as 28.5% in experiment [2], 49.6% in [4] and 1.06 in [6]. Moreover, the IC50 came to 59.5 µM in [3] (read-out: IC50) and 18.9 µM in experiment [5]. For the same compound, in the experiment on SH-SY5Y [7], the viability at 1 µM is 75.4%.

As for `Oc1ccc(/C=C/c2cc(O)cc(O)c2)cc1` [RESVERATROL], the IC50 in [8] turned out to be 65 µM.

Consider `Oc1cc(C(F)(F)F)nn1-c1ncccc1C(F)(F)F`, for which the Activity in experiment [2] turned out to be 34.7%; in experiment [4], 36.1%; in [6], 1.22. The figures for the IC50 in experiment [3] (read-out: IC50) and in experiment [5] were > 120 µM and 35.5 µM, respectively. Besides, in the experiment on SH-SY5Y [7], the viability at 1 µM worked out at 70.8%.

Consider `Oc1cc(C(F)(F)F)nn1-c1ncc(Cl)cc1Cl`, for which the Activity was determined as 29.4% in experiment [2], 46% in experiment [4] and 1.3 in [6]. Besides, the IC50 in [3] (read-out: IC50) was > 120 µM; in experiment [5] it was 20.4 µM. Also, the viability at 1 µM in the experiment with SH-SY5Y [7] was 76.6%.

`Oc1cc(C(F)(F)F)nn1-c1ncc(F)cn1`: the Activity in [2] amounted to 30.9%; in experiment [4], 65.4%; in experiment [6] it was 1.07. Besides, the IC50 in experiment [3] (read-out: IC50) came out at 45.5 µM; in [5], 16.3 µM. Also, the viability at 1 µM in the experiment with SH-SY5Y [7] amounted to 80.5%.

Consider `Cc1cc(O)n(-c2ncccc2Cl)n1`, for which the results for the Activity in experiment [2], in [4] and in experiment [6] were 2.36%, 4.56% and 0.9, respectively. Moreover, the viability at 1 µM in the experiment with SH-SY5Y [7] amounted to 71.5%.

With `Oc1cc(C(F)(F)F)nn1-c1ccc(C(F)(F)F)cn1`, the Activity in experiment [2] stood at 28.4%; in experiment [4], 68.1%; in experiment [6] it was 1.1. The IC50 in experiment [3] (read-out: IC50) worked out at 35.8 µM; in experiment [5] it was 14.8 µM. In the experiment on SH-SY5Y [7], the viability at 1 µM was 84.5%.

Take `Oc1cc(C(F)(F)F)nn1-c1ccc(F)cn1`: the figures for the Activity in [2], in experiment [4] and in [6] were 35.7%, 58.3% and 1.19, respectively. The concentration for half-maximal inhibition (IC50) in [3] (read-out: IC50) was found to be 43.1 µM; in experiment [5] it was 16.6 µM. Also, the viability at 1 µM in the experiment with SH-SY5Y [7] was 71.8%.

Take `O=C(c1cc(O)c(O)c(O)c1)c1cc(O)c(Br)cc1O`: the IC50 in [3] was 14.4 µg/mL.

Take `O=C(O)C1CS[C@@H](c2cccc(F)c2F)N1` (stereo not given in full): in experiment [3] (read-out: IC50), the IC50 came out at 830 µM.

For the compound `C[C@H]1[C@H](C)CC[C@]2(C(=O)O)CC[C@]3(C)C(=CC[C@@H]4[C@@]5(C)CC[C@H](O)C(C)(C)[C@@H]5CC[C@]43C)[C@H]12` [URSOLIC ACID], the IC50 in [3] amounted to 59 µg/mL.

Consider `Cc1cc(O)n(-c2ccc(C(F)(F)F)cn2)n1`, for which the Activity in [2] came out at 30.3%; in experiment [4] it was 55%; in experiment [6], 1.14. Further, the IC50 in [3] (read-out: IC50) was 15.2 µM; in experiment [5] it was 16.1 µM. The viability at 1 µM in the experiment with SH-SY5Y [7] was found to be 79.1%.

Consider `OCc1ccc(-n2nc(C(F)(F)F)cc2O)nc1`, for which the Activity in experiment [2] was 40.4%; in experiment [4], 57.1%; in experiment [6] it was 0.91; in the experiment on Mus musculus [9], “Not active; Showed Weak Activity”. Besides, the IC50 in experiment [3] (read-out: IC50) is 63.9 µM; in experiment [5] it was 28 µM. For the same compound, the viability at 1 µM in the experiment with SH-SY5Y [7] was 78.1%.

In the case of `CC1=NN(c2ccccc2)C(=O)C1` [EDARAVONE], the Activity in experiment [2] is 21.4%; in experiment [4] it was 52.3%; in experiment [6], 1.46. In addition, the values for the IC50 in experiment [3] (read-out: IC50) and in experiment [5] were 42.5 µM and 15.8 µM, respectively. For the same compound, the viability at 1 µM in the experiment on SH-SY5Y [7] came to 72.2%.

As to `Cc1cc(C)nc(-n2nc(C)cc2O)n1`, the Activity in experiment [2] came to 51.6%; in experiment [4], 63.9%; in experiment [6], 1.56. Further, the IC50 in experiment [3] (read-out: IC50) stood at 18.5 µM; in experiment [5], 14.6 µM. Moreover, the viability at 1 µM with SH-SY5Y [7] is 74.7%.

On to `COc1cc(/C=C/C(=O)CC(=O)/C=C/c2ccc(O)c(OC)c2)ccc1O` [CURCUMIN], for which, in experiment [3], the IC50 was found to be 28 µg/mL.

With `Oc1cc(C(F)(F)F)nn1-c1ncccn1`, the values for the Activity in experiment [2], in experiment [4] and in experiment [6] were 36.4%, 63.2% and 1.19, respectively. Also, the figures for the IC50 in experiment [3] (read-out: IC50) and in experiment [5] were 45.3 µM and 13.9 µM, respectively. Further, the viability at 1 µM with SH-SY5Y [7] turned out to be 72.7%.

In the case of `Cc1cc(O)n(-c2ncccc2C)n1`, the Activity was 49.9% in experiment [2], 54.7% in experiment [4], 1.88 in [6] and 24.9% in the experiment on Mus musculus [9]. Also, the figures for the IC50 in [3] (read-out: IC50) and in experiment [5] were 16.1 µM and 13.7 µM, respectively. Also, the viability at 1 µM in the experiment on SH-SY5Y [7] stood at 87%. Further, the result (in the experiment on SH-SY5Y [10]; with SH-SY5Y [11]; in experiment [12]; in the experiment listed under Mus musculus [13]; in the experiment on Mus musculus [14]; in the experiment with Mus musculus [15]) was Active. Moreover, the result with Mus musculus [16] and with Mus musculus [17] was Active.

As to `Cc1cc(O)n(-c2ccccn2)n1`, the Activity in experiment [2] was found to be 35.1%; in experiment [4], 69.1%; in experiment [6] it was 1.27. Further, the IC50 in experiment [3] (read-out: IC50) was 15.4 µM; in experiment [5], 12.3 µM. The viability at 1 µM in the experiment on SH-SY5Y [7] was found to be 81.5%.

For `Cc1c(C)c2c(c(C)c1O)CCC(C)(C(=O)O)O2` (stereo not given), the Activity in [6] was determined as 1.
